Measurements published in US11648258B2, “Method and compounds for inhibiting the MCM complex and their application in cancer treatment” (priority 2012, dated 2023).

What was measured:
[1] = test system: cancer cell lines (HepG2, Hep3B, HeLa, HK1, C666-1); test: cells; type: cell-based, human; details: for IC50: Homo sapiens, 48 hrs treatment, WST-1, average over cancer cell lines
Protocol: For testing the anti-proliferation activity of the compounds in human cell lines and calculation of IC50, cancer cells including HepG2, HeLa and Hep3B (4×10^5 cells/well) and normal L-02 cells (5×10^5 cells/well) were respectively seeded in 96-well plates in 100 μl of culture medium and incubated for about 12 hrs at 37° C. The cells were treated with two-fold serial dilutions of the drugs for 48 hrs. Medium was removed and 100 μl of culture medium containing 1 μM WST-1 (water soluble tetrazolium-1) were added to each well. The cells were incubated for 2 hrs, and absorbance at 405 nm (reference at 630 nm) was then measured. To construct the standard curve of the relationship between cell number and absorbance at OD405, serial dilutions of cells with known cell numbers were seeded and incubated for six hrs before being measured by the WST-1 assay. The cell viability was expressed as the ratio of the number of live cells treated with a candidate compound versus that of the DMSO-treated cells.
To further test 17beta-Deacetyltanghinin and to determine the IC50 values, besides L-02 and HepG2, Hep3B (another liver cancer cell line which is p53-negative), HeLa (cervical cancer cell line), HK1 and C666-1 (nasopharyngeal carcinoma) cells and a hTert-immortalized normal nasopharyngeal cell line (NP460) were treated by 17beta-Deacetyltanghinin for 48 hrs, and the relative cell vabilities were determined by WST-1 assay (FIG. 2B, C).

[2] = target: T1, hMcm2-hMcm6 interaction (MCM complex) (Homo sapiens, UniProt P49736+Q14566); test: Co-immunoprecipitation of MCM subunits in HeLa cell extracts; type: cell-based; details: asynchronous HeLa cells, whole cell extracts
T1 construct: endogenous in cells; host or cells: HeLa
T1 sequence (P49736 2-904 limits assumed): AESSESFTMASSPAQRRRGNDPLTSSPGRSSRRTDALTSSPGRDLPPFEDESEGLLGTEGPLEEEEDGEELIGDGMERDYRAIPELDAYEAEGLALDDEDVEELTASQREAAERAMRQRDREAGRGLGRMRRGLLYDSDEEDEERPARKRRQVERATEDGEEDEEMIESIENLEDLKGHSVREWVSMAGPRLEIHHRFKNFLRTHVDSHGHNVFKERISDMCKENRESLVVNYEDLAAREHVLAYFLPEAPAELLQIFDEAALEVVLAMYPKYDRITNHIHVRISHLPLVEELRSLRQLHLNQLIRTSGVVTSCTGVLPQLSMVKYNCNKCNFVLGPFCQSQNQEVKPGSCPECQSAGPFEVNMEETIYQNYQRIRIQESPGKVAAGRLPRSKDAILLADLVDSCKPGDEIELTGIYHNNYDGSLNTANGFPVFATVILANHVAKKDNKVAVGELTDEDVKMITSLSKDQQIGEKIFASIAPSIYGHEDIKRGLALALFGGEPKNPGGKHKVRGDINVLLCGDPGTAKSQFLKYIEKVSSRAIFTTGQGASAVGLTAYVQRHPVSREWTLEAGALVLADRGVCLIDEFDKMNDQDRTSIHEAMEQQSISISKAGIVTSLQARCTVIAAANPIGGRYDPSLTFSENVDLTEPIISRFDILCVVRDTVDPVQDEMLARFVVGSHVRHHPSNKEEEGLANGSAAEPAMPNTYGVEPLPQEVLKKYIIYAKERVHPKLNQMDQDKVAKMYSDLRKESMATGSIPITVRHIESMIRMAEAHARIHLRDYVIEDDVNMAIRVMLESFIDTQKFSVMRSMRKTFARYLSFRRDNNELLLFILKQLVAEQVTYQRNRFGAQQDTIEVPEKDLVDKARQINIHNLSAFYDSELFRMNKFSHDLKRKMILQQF
T1 sequence (Q14566 whole entry): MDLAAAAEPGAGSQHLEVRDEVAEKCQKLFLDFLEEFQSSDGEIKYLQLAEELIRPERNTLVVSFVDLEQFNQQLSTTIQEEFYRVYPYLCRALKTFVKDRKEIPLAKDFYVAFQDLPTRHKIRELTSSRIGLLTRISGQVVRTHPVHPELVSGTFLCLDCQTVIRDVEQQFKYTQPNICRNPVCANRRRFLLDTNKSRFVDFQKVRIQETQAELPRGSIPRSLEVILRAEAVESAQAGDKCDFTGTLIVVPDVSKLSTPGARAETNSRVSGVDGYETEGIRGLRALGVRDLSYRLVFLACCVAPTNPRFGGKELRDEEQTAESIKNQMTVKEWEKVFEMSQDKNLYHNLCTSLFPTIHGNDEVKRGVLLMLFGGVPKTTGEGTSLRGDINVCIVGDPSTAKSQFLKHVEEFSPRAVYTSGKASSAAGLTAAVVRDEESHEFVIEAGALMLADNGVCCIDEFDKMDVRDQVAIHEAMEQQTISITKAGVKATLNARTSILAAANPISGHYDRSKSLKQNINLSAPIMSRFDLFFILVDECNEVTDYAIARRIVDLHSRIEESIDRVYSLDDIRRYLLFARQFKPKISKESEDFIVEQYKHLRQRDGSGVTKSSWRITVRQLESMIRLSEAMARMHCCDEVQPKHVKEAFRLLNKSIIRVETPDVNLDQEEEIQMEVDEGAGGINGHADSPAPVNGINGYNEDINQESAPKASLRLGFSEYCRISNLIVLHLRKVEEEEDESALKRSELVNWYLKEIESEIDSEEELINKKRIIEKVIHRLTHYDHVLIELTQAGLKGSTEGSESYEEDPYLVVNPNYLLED
Protocol: To test if 17beta-Deacetyltanghinin targets hMcm2 and hMcm6 proteins in human cells, possible co-immunoprecipitation (co-IP) of the two proteins was tested in human cell extracts from cells treated with 17beta-Deacetyltanghinin. In FIG. 3, asynchronous HeLa cells were treated with DMSO or 17beta-Deacetyltanghinin (DAT) (FIG. 3A), or with DMSO, 17beta-Neriifolin (NRF) or 17beta-Deacetyltanghinin diol (Diol) (FIG. 3B), and whole cell extracts were prepared and further incubated with the compound before being used for co-IP in the presence of the compound. The immunoprecipitates were then immunoblotted with anti-hMcm 6, anti-hMcm2, anti-hMcm4 and anti-hMcm7 antibodies.

hMcm2 and hMcm6 [3] = target: T2, hMcm2 and hMcm6 (Homo sapiens, UniProt P49736+Q14566); test: Immunostaining / GFP fluorescence microscopy of MCM nuclear localization in HeLa cells; type: cell-based; details: 24 hrs
T2 construct: the endogenous hMcm2 and hMcm6 were detected by specific antibodies against these proteins; endogenous in cells; host or cells: HeLa
T2 sequence (P49736 2-904): as the sequence (P49736 2-904 limits assumed) above
T2 sequence (Q14566 whole entry): as the sequence (Q14566 whole entry) above
Protocol: (§1) To study the effect of the anticancer compounds on the interaction between hMcm2 and hMcm6 in the cells, immunostaining was performed to detect the sub-cellular localization of the proteins. HeLa cells grown on cover slips (coated with poly-D-lysine) with or without drug treatment were fixed with 4% PFA in PBS at room temperature for 20 min. After permeabilization with 0.1% Triton X-100 and 1% BSA in PBS for 20 min, cells were blocked with 1% BSA and then incubated with rabbit anti-hMcm6 (Santa Cruz; 1:500) and mouse anti-hMcm2 (Becton Dickinson; 1:500) primary antibodies at room temperature for 1 hr. Cells were then incubated with Alexa Fluor 488-conjugated donkey […] antibody and Alexa Fluor 594-conjugated donkey anti-mouse antibody (Invitrogen; 1:500) at room temperature for 1 hr. Three washes with PBS were performed after each round of antibody incubation. Cells were then incubated with Hochest 33852 (Sigma Chemical Company; 1 μg/ml) at room temperature for 15 min for nuclear staining and washed with PBS three times again. At last, cells were mounted and observed under the fluorescence microscope (Nikon TE2000E).
(§2) Because pair-wise interactions among the MCM subunits are required for the MCM heterohexameric ring structure, which is essential for their import into the nucleus, disruption of the interaction between hMcm2 and hMcm6 should destroy the hexamer and result in failure of nuclear localization of MCM proteins. To test this, we employed both indirect fluorescence microscopy (immunostaining) using antibodies against the endogenous MCM proteins and direct fluorescence microscopy after transfection with plasmids to express hMcm2-GFP and hMcm6-GFP in the cells.
(§3) In immunostaining, HeLa cells were treated by 17beta-Deacetyltanghinin for 24 hrs, and the endogenous hMcm2 and hMcm6 were detected by specific antibodies against these proteins. […] In direct fluorescence microscopy, HeLa cells expressing hMcm2-GFP and hMcm6-GFP were treated with 17beta-Deacetyltanghinin for 36 hrs starting at 4 hrs post-transfection with the plasmids expressing hMcm2-GFP and hMcm6-GFP.

hMcm2 and hMcm6 [4] = test: as above; type: cell-based, human; details: 36 hrs treatment starting 4 hrs post-transfection
Protocol: as §1, §2, §3

[5] = test system: HeLa cells xenograft tumors; test: In vivo anticancer activity, nude mice xenograft model; details: for suppression of tumor growth: days 1-3 and 6-10, HeLa xenograft
Protocol: In vivo anticancer activity tests were carried out in the nude mice xenograft model by inoculating nude mice with HeLa cells in both the left and right flanks. After random grouping, nude mice were treated intraperitoneally with 17beta-Deacetyltanghinin or the solvent (30% of propylene glycol in PBS). In the first test, 3 days after tumor inoculation when small tumors started to form, two groups of nude mice were treated on days 1-3 and 6-10 with 3.5 and 7.0 mg-drug/kg-body weight of 17beta-Deacetyltanghinin respectively, and another group of control mice were treated with the same volume of the solvent (FIG. 10A). In FIG. 10A, the tumor volume data represented by the small-size data point symbol linked with thin lines were obtained on the days when both measurement of tumor size and drug injections were performed, and the tumor volume data represented by the large-size data point symbol linked with thick lines were obtained on the days without drug injection. Each tumor size was average of ten tumors in five mice in each group.
A further set of animal experiments was then conducted with a longer period of time, in which fifteen drug injections at 5.0 mg/kg were performed one week after tumor inoculation when the tumor size reached 0.05-0.1 cm^3. In FIG. 10B, drug injections and tumor size measurements were performed on the days represented by the data points, and the photographs in FIG. 10C were taken on day 20.

[6] = test system: HepG2 cells (hepatocellular carcinoma); details: HepG2, 48 hrs

COC1C(O)[C@H](O[C@H]2CC[C@]3(C)C4CC[C@]5(C)[C@@H](C6=CC(=O)OC6)CC[C@]5(O)[C@@]45O[C@H]5C[C@@H]3C2)OC(C)[C@@H]1O (stereo partly drawn) [17beta-Deacetyltanghinin, 3β-O-(3-O-methyl-6-deoxy-α-L-glucopyranosyl)-7β,8β-epoxy-14β-hydroxy-card-20(22)-enolide]
IC50 [1]: ~0.1 µg/mL
IC50 ([1]; printed in brackets): ~200 nM
anti-proliferative (anticancer) activity, in words ([1]; WST-1 assay, 48 hrs): significantly inhibited
disruption of hMcm2-hMcm6 interaction (co-IP) [2]: disrupted the interaction between hMcm2 and hMcm6
nuclear localization of endogenous hMcm2 and hMcm6 (immunostaining) (hMcm2 and hMcm6 [3]): impaired
localization of expressed hMcm2-GFP and hMcm6-GFP (direct fluorescence) (hMcm2 and hMcm6 [4]): some of the expressed hMcm2-GFP and hMcm6-GFP located in the cytoplasm
suppression of tumor growth ([5]; 3.5 mg/kg intraperitoneally): 70%
suppression of tumor growth ([5]; 7.0 mg/kg intraperitoneally): 90%
tumors smaller than in solvent-treated control mice ([5]; fifteen injections at 5.0 mg/kg, started one week after inoculation): over 80%
inhibition of proliferation, direct microscopy of cell density and morphology [6]: efficiently inhibit the proliferation
